Results on one compound are retold here after PMC5923142, “Selection and Characterization of Rupintrivir-Resistant Norwalk Virus Replicon Cells In Vitro” (Antimicrobial Agents and Chemotherapy, 2018).

Where only a bound is given, the exact number is not on record here.

In assay [1] the test system is Norwalk virus replicon. The assay can be described thus: Replicon clearance from HGT-NV cells over 12 days without G418 (qRT-PCR). Format: cell-based, Human norovirus (HuNoV) GI. To be noted: 12 days posttreatment, no G418. The protocol: To confirm the previously reported inhibitory effects of rupintrivir on human norovirus replication ([10]), we generated a human gastric adenocarcinoma cell line, HGT-NV, which stably maintained a Norwalk virus replicon encoding the neomycin resistance gene in place of the major capsid protein. The effects of rupintrivir on norovirus RNA replication in the replicon cells were evaluated by quantitative reverse transcription-PCR (qRT-PCR). […] To determine the concentration of rupintrivir sufficient to completely eliminate the norovirus replicon from HGT-NV cells, we treated the replicon cells with 2.5, 5, and 10 μM rupintrivir in the absence of G418 for up to 12 days. The replicon cells were passaged on days 3, 8, and 12, and the levels of replicon RNA were quantified by qRT-PCR. […] To further characterize the inhibitory effects of rupintrivir, we performed a colony formation assay with replicon cells treated with rupintrivir for 12 days. […]
(§1) The inhibitory effect of rupintrivir on HuNoV replication was assessed by quantification of the levels of GI NuNoV RNA and β-actin RNA as the reference gene. […] The real-time quantitative reverse transcription-PCR (qRT-PCR) assay was performed by using a One-Step Plus qRT-PCR kit according to the protocol of the manufacturer (Primer Design). […] Relative quantification was performed using the 2^−ΔΔCT threshold cycle (CT) method ([38]). […]

The test system of assay [2] is Norwalk virus replicon. The assay can be described thus: Norwalk virus replicon RNA level in HGT-NV cells by qRT-PCR. In kind it is cell-based, Human norovirus (HuNoV) GI. On the procedure:
A human gastric tumor-1 (HGT-1) cell line ([29]) was used to establish a human norovirus replicon-harboring HGT (HGT-NV) cell line. In brief, viral protein genome (VPg)-linked RNA was isolated from BHK cells containing the Norwalk virus GI replicon and transfected into HGT-1 cells. HGT-NV replicon cells were selected in G418 (1 mg/ml), and limiting dilution was used to identify a clone with high viral RNA levels. The generated HGT-NV replicon cells were grown and maintained under G418 selection. The replicon-containing BHK cell line was generated by the transfection of in vitro-transcribed capped RNA from the cDNA construct of the Norwalk virus replicon ([9]), kindly provided by Kim Green (National Institutes of Health, Bethesda, MD, USA), into baby hamster kidney cells. Human embryonic kidney HEK293T cells were obtained from ATCC. The murine microglial BV-2 cell line was provided by Jennifer Pocock (University College London, London, UK). […]
as §1
For orientation: In antiviral work, replicon cells carry a viral genome segment that copies itself.

In assay [3] the target is T1, MNV WT protease (polyprotein) (Norovirus, UniProt Q80J95).
T1 construct: in vitro-transcribed MNV full-length capped RNA containing either the WT or mutant proteases; made in house; host or cells: rabbit reticulocyte lysate (Flexi system, Promega), in vitro translation
Kind of assay: In vitro translation, MNV polyprotein processing, WT protease. In kind it is biochemical, murine norovirus. To be noted: 80 μM, rabbit reticulocyte lysate. On the procedure: (§2) FIG 4 Impact of rupintrivir resistance-conferring mutations on MNV polyprotein processing in vitro. In vitro translation reactions were programmed with equal quantities of in vitro-transcribed MNV full-length capped RNA containing either the WT or mutant proteases in the presence and absence of 80 μM rupintrivir. The [^35S]methionine-labeled products were subsequently analyzed by SDS-PAGE and phosphorimaging analysis. The percentage of fully processed NS3, determined on the basis of the expected molecular mass of the proteins, was calculated and expressed relative to the total amount of viral protein produced.
(§3) In vitro translation reactions were performed using a Flexi rabbit reticulocyte lysate system (Promega). The reaction mixtures were prepared according to the manufacturer's instructions as described for capped mRNAs and programmed with 1 μg of RNA per 25-μl reaction mixture. The reaction mixtures were incubated at 30°C for 90 min prior to the addition of an equal volume of SDS-PAGE sample buffer. Samples were subsequently resolved on a 12.5% SDS-polyacrylamide gel before exposure to a phosphorimager screen.

The target in assay [4] is T2, MNV I109V protease (polyprotein) (Norovirus, UniProt Q80J95, I1103V).
T2 construct: in vitro-transcribed MNV full-length capped RNA containing either the WT or mutant proteases; made in house; host or cells: rabbit reticulocyte lysate (Flexi system, Promega), in vitro translation
The assay can be described thus: In vitro translation, MNV polyprotein processing, I109V protease. Format: biochemical, murine norovirus. The settings on record: 80 μM, rabbit reticulocyte lysate. On the procedure: as §2, §3

In assay [5] the target is T3, MNV A105V/I109V protease (polyprotein) (Norovirus, UniProt Q80J95, A1099V/I1103V).
T3 construct: in vitro-transcribed MNV full-length capped RNA containing either the WT or mutant proteases; made in house; host or cells: rabbit reticulocyte lysate (Flexi system, Promega), in vitro translation
Kind of assay: In vitro translation, MNV polyprotein processing, A105V/I109V protease. Format: biochemical, murine norovirus. To be noted: 80 μM, rabbit reticulocyte lysate. On the procedure:
as §2, §3

Take `CCOC(=O)/C=C/[C@H](C[C@@H]1CCNC1=O)NC(=O)[C@@H](CC(=O)[C@@H](NC(=O)c1cc(C)on1)C(C)C)Cc1ccc(F)cc1` [rupintrivir, Rupintrivir]: the “level of replicon RNA” value with Norwalk virus replicon [1] (5 μM) and with Norwalk virus replicon [1] (10 μM) was “below the limit of quantification” each time. Besides, in the assay with Norwalk virus replicon [2] (HGT-NV cells), the “selectivity index (CC50/EC50)” value is greater than 77. The EC50 in the assay on Norwalk virus replicon [2] (Norwalk virus, 72 h, read-out: 50% effective concentration (EC50), replicon RNA) was 1.3 ± 0.1 µM. Further, the “polyprotein processing (mature NS3)” value in assay [3] is recorded as “prevented the cleavage of the polyprotein”; in assay [4], “still able to produce mature NS3”; in assay [5], “still able to produce mature NS3”.
